The experiment addresses Misshapen-like kinase 1 (MINK1) (Homo sapiens, UniProt Q8N4C8). The experiment can be described thus: ADP-Glo kinase assay with recombinant human MINK1, MBP substrate and ATP. Format: biochemical.

pIC50: −log10 of the molar value.

Sequence of Misshapen-like kinase 1 (MINK1) (Q8N4C8 whole entry): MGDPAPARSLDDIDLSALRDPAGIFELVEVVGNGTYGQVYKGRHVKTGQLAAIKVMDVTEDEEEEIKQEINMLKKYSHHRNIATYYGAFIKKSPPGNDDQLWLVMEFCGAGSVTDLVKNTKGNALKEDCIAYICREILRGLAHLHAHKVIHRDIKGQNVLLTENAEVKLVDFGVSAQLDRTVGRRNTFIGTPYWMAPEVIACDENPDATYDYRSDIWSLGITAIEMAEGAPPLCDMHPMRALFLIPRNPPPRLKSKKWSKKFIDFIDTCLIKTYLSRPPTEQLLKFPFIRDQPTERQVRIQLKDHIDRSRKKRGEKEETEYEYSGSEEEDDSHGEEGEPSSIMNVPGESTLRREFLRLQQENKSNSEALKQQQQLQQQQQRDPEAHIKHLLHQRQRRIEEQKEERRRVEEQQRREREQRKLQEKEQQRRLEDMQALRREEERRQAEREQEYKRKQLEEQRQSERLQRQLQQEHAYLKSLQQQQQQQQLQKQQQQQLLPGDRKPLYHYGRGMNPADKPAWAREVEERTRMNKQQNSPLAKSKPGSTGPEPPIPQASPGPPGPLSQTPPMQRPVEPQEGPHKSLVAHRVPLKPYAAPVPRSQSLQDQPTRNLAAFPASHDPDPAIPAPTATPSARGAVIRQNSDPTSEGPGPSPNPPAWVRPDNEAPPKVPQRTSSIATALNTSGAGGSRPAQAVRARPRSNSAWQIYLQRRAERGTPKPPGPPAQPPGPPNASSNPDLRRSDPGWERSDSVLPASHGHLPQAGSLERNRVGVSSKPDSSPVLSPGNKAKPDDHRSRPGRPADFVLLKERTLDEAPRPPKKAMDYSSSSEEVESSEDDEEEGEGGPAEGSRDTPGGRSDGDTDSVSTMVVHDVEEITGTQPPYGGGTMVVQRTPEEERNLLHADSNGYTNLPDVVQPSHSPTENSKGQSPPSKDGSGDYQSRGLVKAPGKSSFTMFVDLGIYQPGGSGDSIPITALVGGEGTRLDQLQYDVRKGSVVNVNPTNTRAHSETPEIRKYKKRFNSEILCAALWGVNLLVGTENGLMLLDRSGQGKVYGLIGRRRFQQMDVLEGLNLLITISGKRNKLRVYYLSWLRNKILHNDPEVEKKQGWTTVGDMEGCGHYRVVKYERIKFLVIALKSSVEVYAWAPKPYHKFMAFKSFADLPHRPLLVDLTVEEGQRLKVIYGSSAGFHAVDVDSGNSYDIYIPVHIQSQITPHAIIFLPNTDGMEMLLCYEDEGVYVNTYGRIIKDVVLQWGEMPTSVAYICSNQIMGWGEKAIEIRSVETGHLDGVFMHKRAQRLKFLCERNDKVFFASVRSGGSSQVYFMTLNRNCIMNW

Take `Cc1ccc(-n2nc(C(C)(C)C)cc2NC(=O)NCc2cc(F)ccc2Oc2ccc3c(cnn3CCO)c2)cc1` [pexmetinib]: the pIC50 is 5.00.

Values taken from paper PMC9630125 (Oncogene, 2022).
